{"source": "patent US7388016B2", "about": "“Dibenzonaphthyridine derivatives and methods of use thereof” (Wyeth, priority 2005, dated 2008)", "data": [{"biological_target": "T1, PDK-1 (Homo sapiens, UniProt O15530)", "T1 sequence (O15530 1-556)": "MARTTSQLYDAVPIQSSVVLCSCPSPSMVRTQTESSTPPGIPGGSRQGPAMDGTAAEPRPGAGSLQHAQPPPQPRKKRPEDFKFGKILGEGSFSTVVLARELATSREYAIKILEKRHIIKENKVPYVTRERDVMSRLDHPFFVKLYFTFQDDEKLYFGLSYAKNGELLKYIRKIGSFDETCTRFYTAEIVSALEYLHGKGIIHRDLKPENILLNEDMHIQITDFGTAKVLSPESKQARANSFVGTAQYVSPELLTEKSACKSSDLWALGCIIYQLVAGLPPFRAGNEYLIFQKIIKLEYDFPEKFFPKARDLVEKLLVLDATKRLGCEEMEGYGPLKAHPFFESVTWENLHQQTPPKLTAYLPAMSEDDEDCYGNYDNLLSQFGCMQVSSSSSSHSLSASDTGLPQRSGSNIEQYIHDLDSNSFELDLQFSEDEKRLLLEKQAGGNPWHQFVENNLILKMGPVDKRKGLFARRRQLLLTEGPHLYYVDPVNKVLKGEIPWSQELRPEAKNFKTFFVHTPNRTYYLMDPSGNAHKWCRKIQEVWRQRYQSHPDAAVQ", "experiment": "In vitro PDK-1 inhibition ELISA assay (phosphorylation of SGK1 on Threonine 256)", "assay_type": "biochemical", "details": "PDK-1 phosphorylates 6xHIS tagged SGK1, 17 minutes reaction, chemiluminescent detection", "procedure": "The ability of illustrative Dibenzonaphthyridine Derivatives to inhibit PDK-1 in vitro can be determined using the ELISA assay as decribed in Kobayashi et al., Biochem. J. 339:319-328 (1999) and Park et al., EMBO J. 18:3024-3033 (1999).\nIn this in vitro assay, PDK-1 kinase phosphorylates SGK1 on Threonine 256. After 17 minutes, the reaction is quenched via the addition of urea. The 6×HIS tagged SGK1 is then bound to 96 well Ni-NTA HisSorb plates and the phosphorylated SGK1 is detected using rabbit derived anti-phospho SGK antibody as the primary antibody and HRP coupled anti-rabbit antibody as the secondary antibody. HRP is then detected using a Chemiluminescent Substrate.", "units": {"IC50": "µM"}, "values": [{"compound": "COc1cc2c(cc1OCCCN1CCCC1=O)ncc1c(N)nc3c(C)c(N)ccc3c12", "note": "[Ib-35, 1-{3-[(7,10-diamino-2-methoxy-9-methyldibenzo[c,f]-2,7-naphthyridin-3-yl)oxy]propyl}pyrrolidin-2-one]", "IC50": 0.111}, {"compound": "COc1cc2ncc3c(N)nc4c(C)c(N5C(=O)c6ccccc6C5=O)ccc4c3c2cc1OC", "note": "[Ib-36, 2-(6-amino-10,11-dimethoxy-4-methyldibenzo[c,f]-2,7-naphthyridin-3-yl)-1H-isoindole-1,3(2H)-dione]", "IC50": 1.73}, {"compound": "COc1cc2ncc3c(N)nc4cc(N)ccc4c3c2cc1OC", "note": "[Ib-38, 10,11-dimethoxydibenzo[c,f]-2,7-naphthyridine-3,6-diamine]", "IC50": 0.67}, {"compound": "COc1cc2ncc3c(N)nc4c(C)cccc4c3c2cc1OC", "note": "[Ib-39, 10,11-dimethoxy-4-methyldibenzo[c,f]-2,7-naphthyridin-6-amine]", "IC50": 0.258}, {"compound": "COc1cc2c(cc1OCCC(C)C)ncc1c(N)nc3c(C)c(N)ccc3c12", "note": "[Ib-40, 11-methoxy-4-methyl-10-(3-methylbutoxy)dibenzo[c,f]-2,7-naphthyridine-3,6-diamine]", "IC50": 1.18}, {"compound": "COc1cc2c(cc1OCCC(C)(C)C)ncc1c(N)nc3c(C)c(N)ccc3c12", "note": "[Ib-41, 10-(3,3-dimethylbutoxy)-11-methoxy-4-methyldibenzo[c,f]-2,7-naphthyridine-3,6-diamine]", "IC50": 6.44}, {"compound": "COc1cc2c(cc1OCCCOCc1ccccc1)ncc1c(N)nc3c(C)c(N)ccc3c12", "note": "[Ib-42, 10-[3-(benzyloxy)propoxy]-11-methoxy-4-methyldibenzo[c,f]-2,7-naphthyridine-3,6-diamine]", "IC50": 2.44}, {"compound": "COc1cc2c(cc1OC[C@@H]1CCCN1Cc1ccccc1)ncc1c(N)nc3c(C)c(N)ccc3c12", "note": "[Ib-43, 10-{[(2S)-1-benzylpyrrolidin-2-yl]methoxy}-11-methoxy-4-methyldibenzo[c,f]-2,7-naphthyridine-3,6-diamine]", "IC50": 2.98}, {"compound": "COc1cc2c(cc1OC[C@@H]1CCCN1C[C@@H]1CCCN1C)ncc1c(N)nc3c(C)c(N)ccc3c12", "note": "[Ib-44, 11-methoxy-4-methyl-10-[((2S)-1-{[(2S)-1-methylpyrrolidin-2-yl]methyl}pyrrolidin-2-yl)methoxy]dibenzo[c,f]-2,7-naphthyridine-3,6-diamine]", "IC50": 0.949}, {"compound": "COc1cc2c(cc1OCCC1CCCC1)ncc1c(N)nc3c(C)c(N)ccc3c12", "note": "[Ib-45, 10-(2-cyclopentylethoxy)-11-methoxy-4-methyldibenzo[c,f]-2,7-naphthyridine-3,6-diamine]", "IC50": 4.53}, {"compound": "COc1cc2c(cc1OCCC1CC1)ncc1c(N)nc3c(C)c(N)ccc3c12", "note": "[Ib-46, 10-(2-cyclopropylethoxy)-11-methoxy-4-methyldibenzo[c,f]-2,7-naphthyridine-3,6-diamine]", "IC50": 0.212}, {"compound": "CCOCCOc1cc2ncc3c(N)nc4c(C)c(N)ccc4c3c2cc1OC", "note": "[Ib-47, 10-(2-ethoxyethoxy)-11-methoxy-4-methyldibenzo[c,f]-2,7-naphthyridine-3,6-diamine]", "IC50": 0.172}, {"compound": "COc1cc2c(cc1O)ncc1c(N)nc3c(C)c(N)ccc3c12", "note": "[Ib-48, 7,10-diamino-2-methoxy-9-methyldibenzo[c,f]-2,7-naphthyridin-3-ol]", "IC50": 1.37}, {"compound": "COc1cc2ncc3c(N)nc4c(C)c(Cl)ccc4c3c2cc1OC", "note": "[Ib-49, 3-chloro-10,11-dimethoxy-4-methyldibenzo[c,f]-2,7-naphthyridin-6-amine]", "IC50": 2.22}, {"compound": "COc1cc2ncc3c(N)nc4c(C)c(O)ccc4c3c2cc1OC", "note": "[Ib-50, 6-amino-10,11-dimethoxy-4-methyldibenzo[c,f]-2,7-naphthyridin-3-ol]", "IC50": 0.046}, {"compound": "COc1cc2ncc3c(N)nc4c(C)c(OC)ccc4c3c2cc1OC", "note": "[Ib-51, 3,10,11-trimethoxy-4-methyldibenzo[c,f]-2,7-naphthyridin-6-amine]", "IC50": 0.0487}, {"compound": "CNc1nc2c(C)c(N)ccc2c2c1cnc1cc(OC)c(OC)cc12", "note": "[Ic-1, 10,11-dimethoxy-N-6,4-dimethyldibenzo[c,f]-2,7-naphthyridine-3,6-diamine]", "IC50": 36.6}]}]}
